{"source": "patent US12560591B2", "about": "“Methods of treatment with CD8 T cell-mediated immune therapy” (Providence Health & Services—Oregon, priority 2019, dated 2026)", "key": {"CXCR3^+CD8^+ T cells": {"system": "CXCR3^+CD8^+ T cells", "experiment": "FACS analysis of CXCR3^+CD8^+ T cells in CT26 tumor bearing mice", "type": "in vivo, mouse", "conditions": "preclinical modeling, 7 days treatment, FIG. 10E", "description": "FIGS. 10A-10E show CD8^+ T cell proliferation is suppressed by the tumor microenvironment, but TGF13 inhibition can increase tumor trafficking. […] Ki67^+CD8^+ T cells was determined by FACS analysis of lymph nodes and MC38 tumors of WT and ALK5^ΔCD8 mice (FIG. 10B).\nFlow Cytometry: For ex vivo cytokine analysis, cells were first treated with a 1× cell activation cocktail of PMA/ionomycin/Brefeldin A (Biolegend) for 5 hours in complete RPMI media. One million cells from single cell suspensions were stained with anti-CD16/CD32 Fc block (1:200, BD Biosciences) and fixable viability 700 dye (1:10,000, BD Biosciences) in 1×PBS for 15 min. at 37° C. prior to surface and intracellular staining with primary antibodies. Surface staining commenced in 200 μl FACS buffer supplemented with a 1:4 dilution of Brilliant Violet stain buffer (BD Biosciences) and fluorescently conjugated antibodies (Table 1) for 30 min at 4° C. in the dark; all are mouse reactive antibodies unless otherwise indicated. Following surface staining cells were washed and fixed in either 2% PFA or Fix/Perm buffer (eBioscience) for 20 min at 4° C. for intracellular stain. Fix/perm buffer was washed with 1× perm wash buffer (eBioscience) and intracellular proteins were stained with fluorescently conjugated ICS antibodies in perm wash buffer for 30 min. at 4° C. in the dark. […]"}, "ALK4": {"target": "T1, ALK4 (Homo sapiens, UniProt P36896)", "T1 sequence (P36896 24-505)": "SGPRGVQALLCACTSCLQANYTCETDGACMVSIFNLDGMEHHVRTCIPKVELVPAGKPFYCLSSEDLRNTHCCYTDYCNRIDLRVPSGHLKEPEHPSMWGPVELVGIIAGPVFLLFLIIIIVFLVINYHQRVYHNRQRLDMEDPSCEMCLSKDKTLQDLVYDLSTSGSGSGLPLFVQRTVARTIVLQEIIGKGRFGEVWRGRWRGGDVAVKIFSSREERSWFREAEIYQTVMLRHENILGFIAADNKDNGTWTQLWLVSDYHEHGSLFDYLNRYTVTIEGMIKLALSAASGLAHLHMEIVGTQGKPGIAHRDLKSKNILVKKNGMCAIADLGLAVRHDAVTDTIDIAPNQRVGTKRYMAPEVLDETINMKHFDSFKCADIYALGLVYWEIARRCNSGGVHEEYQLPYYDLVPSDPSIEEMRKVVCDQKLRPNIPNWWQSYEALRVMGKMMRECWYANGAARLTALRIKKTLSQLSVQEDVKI", "conditions": "reported in Lahn et al., Drug Des. Devel. Ther. 2015; cited from earlier work"}, "[1]": {"system": "CXCR3^+CD8^+ T cells in the tumor microenvironment", "experiment": "Clinical trial NCT02688712: immunofluorescence of rectal tumor biopsies, baseline vs day 15", "type": "in vivo, human", "conditions": "rectal cancer patient biopsies, baseline vs day 15, FIG. 12D-E", "text": "FIGS. 12A-12E are a series of panels showing TGFβ-mediated suppression of CXCR3-dependent CD8^+ T cell chemotaxis is relieved by LY2157299 in human patients with rectal cancer. […] FIG. 12B illustrates the clinical trial schema for a phase II clinical trial of rectal cancer patients and sample collection intervals. Patients receive two cycles of LY2157299 on days 1-14 and again on days 30-43 while receiving standard of care chemoradiation on days 15-57 prior to surgery. […] Patients are grouped by nodal status following neoadjuvant treatment (ypN). On the right, percent change in frequency of CXCR3^+CD3^+CD4^− T cells between days 1 and 15 is shown versus the neoadjuvant rectal (NAR) score. […] Each patient is shown (thin gray lines) along with the mean of all patients (thick black line). […]\nTo determine the clinical relevance of our data, the expression of CXCR3 in human patients was interrogated. […] Therefore, the CD4^+ T cell panel was used and back gated on CD45^+CD3^+CD4^− T cells, the majority of which are CD8^+ T cells (on average 65% of CD45^+CD3^+CD4^− cells were CD8^+ T cells using the T effector and memory panel which has CD45, CD3, CD4, and CD8, but not CXCR3), and calculated CXCR3 expression. […] Therefore, forceps-biopsy specimens obtained by proctoscopy at baseline and day 15 were evaluated for alterations in CXCR3^+CD8^+ T cells."}}}
{"smiles": "Cc1cccc(-c2nn3c(c2-c2ccnc4ccc(C(N)=O)cc24)CCC3)n1", "note": "[LY2157299]", "values": [{"measurement": "CXCR3^+CD8^+ T cells following treatment", "setting": "CXCR3^+CD8^+ T cells", "value": "increase in CXCR3^+CD8^+ T cells"}, {"measurement": "Kd for ALK4 compared with ALK5", "setting": "ALK4", "value": "lower Kd for ALK4 than ALK5"}, {"measurement": "percentage CXCR3^+CD8^+ T cells in the tumor microenvironment", "setting": "[1]", "value": "increase in the percentage CXCR3^+CD8^+ T cells"}]}
